Measured values from the NIST ThermoML archive (doi:10.1016/j.jct.2010.04.019).
Numbers after ± are expanded uncertainties.

Assay: molar heat capacity at constant pressure; xn = mol fraction of the nth substance listed
Conditions: 101 kPa, Liquid, Vacuum adiabatic calorimetry

CC#N [acetonitrile] + O
molar heat capacity at constant pressure [J/K/mol]
Conditions	283.15 K	298.15 K	313.15 K	328.15 K
x1 = 0.0112	76.78 ± 0.21	76.64 ± 0.21	76.74 ± 0.21	76.89 ± 0.21
x1 = 0.0194	77.58 ± 0.22	77.54 ± 0.22	77.7 ± 0.22	77.9 ± 0.22
x1 = 0.0286	78.38 ± 0.22	78.45 ± 0.22	78.67 ± 0.22	78.89 ± 0.22
x1 = 0.0383	79.1 ± 0.22	79.27 ± 0.22	79.51 ± 0.22	79.77 ± 0.22
x1 = 0.0497	79.91 ± 0.22	80.02 ± 0.22	80.18 ± 0.22	80.51 ± 0.22
x1 = 0.0611	80.52 ± 0.22	80.57 ± 0.22	80.8 ± 0.22	81 ± 0.22
x1 = 0.0702	80.89 ± 0.22	80.95 ± 0.22	81.21 ± 0.22	81.46 ± 0.22
x1 = 0.0804	81.26 ± 0.22	81.33 ± 0.22	81.57 ± 0.22	81.9 ± 0.22
x1 = 0.091	81.66 ± 0.22	81.73 ± 0.22	81.99 ± 0.22	82.33 ± 0.22
x1 = 0.1007	81.99 ± 0.22	82.06 ± 0.22	82.36 ± 0.22	82.7 ± 0.22
x1 = 0.2124	85.36 ± 0.22	85.66 ± 0.22	86.24 ± 0.22	86.82 ± 0.22
x1 = 0.3063	87.72 ± 0.22	88.31 ± 0.22	89.08 ± 0.22	89.92 ± 0.22
x1 = 0.3987	89.89 ± 0.22	90.7 ± 0.23	91.59 ± 0.23	92.56 ± 0.23
x1 = 0.4856	91.57 ± 0.23	92.38 ± 0.23	93.42 ± 0.23	94.38 ± 0.23
x1 = 0.6011	93.03 ± 0.23	93.96 ± 0.23	94.89 ± 0.23	95.86 ± 0.23
x1 = 0.7107	93.7 ± 0.23	94.44 ± 0.23	95.33 ± 0.23	96.16 ± 0.23
x1 = 0.8024	93.56 ± 0.23	94.16 ± 0.23	94.79 ± 0.23	95.62 ± 0.23
x1 = 0.9005	92.77 ± 0.23	93.28 ± 0.23	93.87 ± 0.23	94.55 ± 0.23
x1 = 0.9091	92.66 ± 0.23	93.17 ± 0.23	93.75 ± 0.23	94.42 ± 0.23
x1 = 0.9203	92.52 ± 0.23	93.01 ± 0.23	93.59 ± 0.23	94.24 ± 0.23
x1 = 0.9316	–	92.85 ± 0.23	93.41 ± 0.23	94.06 ± 0.23
x1 = 0.9402	92.25 ± 0.23	92.73 ± 0.23	93.29 ± 0.23	93.94 ± 0.23
x1 = 0.9496	92.11 ± 0.23	92.59 ± 0.23	93.14 ± 0.23	93.77 ± 0.23
x1 = 0.9604	91.94 ± 0.23	92.4 ± 0.23	92.95 ± 0.23	93.58 ± 0.23
x1 = 0.9711	91.77 ± 0.23	92.22 ± 0.23	92.76 ± 0.23	93.38 ± 0.23
x1 = 0.9803	91.61 ± 0.23	92.06 ± 0.23	92.59 ± 0.23	93.21 ± 0.23
x1 = 0.991	91.42 ± 0.23	91.87 ± 0.23	92.39 ± 0.23	93 ± 0.23
x1 = 1	91.25 ± 0.23	91.69 ± 0.23	92.21 ± 0.23	92.82 ± 0.23

O [water] + CC#N
x2 = 0
Conditions	molar heat capacity at constant pressure [J/K/mol]
283.15 K	75.52 ± 0.21
298.15 K	75.29 ± 0.21
313.15 K	75.27 ± 0.21
328.15 K	75.34 ± 0.21
